SMILES strings stand for the structures. Calls of active or inactive are those of the source. How the calls were made is not given here.

In this experiment the test system is Ga16 counterscreen cells, calcium fluorescence antagonism. As to the kind of experiment: Ga16 cell calcium inhibition, analog series – fluorescence, dose response, MedChem round 1, counter-screen for TAAR1 agonist project, SAR follow-up (AID 743494). On the technique in general: A counterscreen serves to expose hits that act by an unwanted route or on another target.
What is called IC50 is the point on the concentration scale where inhibition reaches its midpoint. As for `O=C(CCN1C[C@@H](C(=O)O)[C@H](c2ccccc2)C1)NC1CCCC1`, the IC50 is > 29.9 µM (inactive). The same measure for `O=C(CCN1C[C@@H](C(=O)O)[C@H](c2cccc(F)c2)C1)NC1CC1`: > 29.9 µM (inactive). Turning to `O=C(CCN1CCC(c2ccccc2)C1)c1ccccc1` (stereo unspecified), the IC50 was > 29.9 µM (inactive). The same measure for `CC(CN1CCCC1Cc1ccccc1)C(=O)c1ccc2c(c1)OCCO2` (stereo unspecified): > 29.9 µM (inactive). Turning to `O=C(CCN1C[C@@H](C(=O)O)[C@H](c2ccccc2)C1)NCc1cccs1`, the IC50 is > 29.9 µM (inactive).

For the compound `O=C(CCN1CCC(O)(c2ccc(F)cc2)C1)c1ccc2c(c1)OCCO2` (stereo unspecified), the IC50 is > 29.9 µM (inactive). The same measure for `CC(CN1CCC(c2ccccc2)C1)C(=O)c1ccc2c(c1)OCCO2` (stereo unspecified): > 29.9 µM (inactive). Turning to `O=C(CCN1CCC(O)(c2ccccc2)C1)c1ccc2c(c1)OCCO2` (stereo unspecified), the IC50 is > 29.9 µM (inactive). Turning to `NC(=O)CCN1C[C@H](c2ccccc2)[C@@H]2[C@H]1C1CCN2CC1`, the IC50 is > 29.9 µM (inactive). As to `CC1CN(CCC(=O)c2ccc3c(c2)OCCO3)CC1c1ccccc1` (stereo unspecified), the IC50 was > 29.9 µM (inactive). `Cc1ccc(C(=O)CCN2CCC(c3ccccc3)C2)cc1` (stereo unspecified): the IC50 was > 29.9 µM (inactive).
